Source: US7166607B2, “Substituted indoles” (AstraZeneca AB, priority 2002, dated 2007)

Columns and labels:
rhCRTh2 = molecular target: T1, rhCRTh2 (Homo sapiens, UniProt Q9Y5Y4); assay: Ligand Binding Assay ([3H]PGD2 SPA, HEK cell membranes); details: [3H]PGD2 displacement, membranes of HEK cells expressing rhCRTh2/Gα16, SPA beads, 2 hours room temperature
T1 construct: expressed in transfected cells; host or cells: HEK cells (stably transfected, geneticin selection; expression induced with sodium butyrate); membrane preparation
T1 sequence (Q9Y5Y4 1-395): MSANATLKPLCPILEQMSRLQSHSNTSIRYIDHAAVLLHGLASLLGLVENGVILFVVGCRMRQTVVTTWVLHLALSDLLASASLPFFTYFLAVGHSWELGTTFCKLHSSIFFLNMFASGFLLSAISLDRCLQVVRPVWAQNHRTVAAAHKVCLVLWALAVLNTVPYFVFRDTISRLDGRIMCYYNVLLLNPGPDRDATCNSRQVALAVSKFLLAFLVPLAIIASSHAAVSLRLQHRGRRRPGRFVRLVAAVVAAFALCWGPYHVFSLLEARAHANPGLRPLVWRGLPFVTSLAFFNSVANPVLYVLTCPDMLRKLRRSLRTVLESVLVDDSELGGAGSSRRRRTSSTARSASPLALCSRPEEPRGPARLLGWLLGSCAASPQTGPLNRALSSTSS
Protocol: [^3H]PGD2 was purchased from Perkin Elmer Life Sciences with a specific activity of 100–210 Ci/mmol. All other chemicals were of analytical grade.
HEK cells expressing rhCRTh2/Gα16 were routinely maintained in DMEM containing 10% Foetal Bovine Serum (HyClone), 1 mg/ml geneticin, 2 mM L-glutamine and 1% non-essential amino acids. For the preparation of membranes, the adherent transfected HEK cells were grown to confluence in two layer tissue culture factories (Fisher, catalogue number TKT-170-070E). Maximal levels of receptor expression were induced by addition of […] sodium butyrate for the last 18 hours of culture. The adherent cells were washed once with phosphate buffered saline (PBS, 50 ml per cell factory) and detached by the addition of 50 ml per cell factory of ice-cold membrane homogenisation buffer [20 mM HEPES (pH 7.4), 0.1 mM dithiothreitol, 1 mM EDTA, 0.1 mM phenyl methyl sulphonyl fluoride and 100 μg/ml bacitracin]. […] The final pellet was re-suspended in 4 ml of membrane homogenisation buffer per cell factory used and the protein content determined. […]
All assays were performed in Corning clear bottomed, white 96-well NBS plates (Fisher). […] (The optimum coating concentrations were determined for each batch of membranes) The beads were pelleted by centrifugation (800×g for 7 minutes at 4° C.), washed once with assay buffer (50 mM HEPES pH 7.4 containing 5 mM magnesium chloride) and finally re-suspended in assay buffer at a bead concentration of 10 mg/ml.
Each assay contained 20 μl of 6.25 nM [^3H]PGD2, 20 μl membrane saturated SPA beads both in assay buffer and 10 μl of compound solution or 13,14-dihydro-15-keto prostaglandin D2 (DK-PGD2, for determination of non-specific binding, Cayman chemical company). […] The assay plate was incubated at room temperature for 2 hours and counted on a Wallac Microbeta liquid scintillation counter (1 minute per well).

COc1cccc(Sc2c(C)n(CC(=O)O)c3ccc(C)cc23)c1 [Example 29, 3-[(3-methoxyphenyl)thio]-2,5-dimethyl-1H-indole-1-acetic acid]
IC50 (rhCRTh2): 4.47 nM

Cc1ccc2c(c(Sc3nc(-c4ccccc4)cs3)c(C)n2CC(=O)O)c1S(C)(=O)=O [Example 50, 2,5-dimethyl-4-(methylsulfonyl)-3-[(4-phenyl-2-thiazolyl)thio]-1H-indole-1-acetic acid]
IC50 (rhCRTh2): 63.1 nM

Cc1c(Sc2ccc(Cl)cc2)c2c(N3CCN(C(=O)OC(C)(C)C)CC3)cccc2n1CC(=O)O [Example 23, 3-[(4-chlorophenyl)thio]-4-[4-[(1,1-dimethylethoxy)carbonyl]-1-piperazinyl]-2-methyl-1H-indole-1-acetic acid]
IC50 (rhCRTh2): 891 nM | melting point: 173 °C

COC(=O)c1ccc2c(c1)c(Sc1ccc(Cl)cc1)c(C)n2CC(=O)O [Example 53, 3-[(4-chlorophenyl)thio]-5-(methoxycarbonyl)-2-methyl-1H-indole-1-acetic acid]
melting point: 221 to 223 °C
